Tested on: patients with bipolar disorder
Assay: Side effects reported in patient case reports
Assay type: in vivo, human

## CN(C)CCOC(c1ccccc1)c1ccccc1 [Benadryl]
Example 42: Benadryl 1x/day for akisthisia under Geodon
  akisthisia: significant improvement

## O=C1Cc2cc(CCN3CCN(c4nsc5ccccc45)CC3)c(Cl)cc2N1 [Geodon, ziprasidone]
Example 42: Geodon 80 mg/day, felt like crawling out of their skin
  tolerability: could not tolerate the Geodon

## OCCOCCN1CCN(C2=Nc3ccccc3Sc3ccccc32)CC1 [Seroquel, quetiapine fumurate]
Example 15: Seroquel given by their psychiatrist
  effect on blood sugar: elevated their blood sugar
Example 18: Seroquel 400 mg
  sedation: excessive sedation in the AM

## [Li] [lithium]
Example 7: lithium 300 mg tid, stopped
  side effects: intolerable side effects
Example 21: lithium 600 mg/day, improved at 300 mg
  side effects: tremulousness and stomach discomfort along with diarrhea

From patent US8138169B2, “Combination therapy for bipolar disorder” (ComgenRx, Inc., priority 2008, dated 2012)
